This note sets out measurements from ChEMBL document CHEMBL3045663, “Synthesis and Activity of Novel Acaricidal/Insecticidal 2, 4-Diphenyl-1, 3-oxazolines” (J Pestic Sci, 2002).

pEC50: −log10 of the molar value. Values after ≈ are worked out from the molar mass of the structure shown.

The subject of one assay is Myzus persicae. The assay is described as follows: Insecticidal activity against Myzus persicae (green peach aphid) in compound treated radish leaf assessed as mortality at 500 ppm. It is filed as functional.
A further assay has as its system Plutella xylostella. The experiment in a line: Insecticidal activity against Plutella xylostella (diamondback moth) in compound treated radish leaf assessed as mortality at 500 ppm. It is filed as functional.
The subject of assay [1] is Tetranychus urticae. The experiment in a line: Acaricidal activity against Tetranychus urticae (two-spotted spider mite) in compound treated kidney bean leaf assessed as mortality of egg at 1000 ppm at 24 degC measured after 1 week. It is filed as functional. The conditions noted are these: 168 h.
For assay [2], the system named is Tetranychus urticae. The assay is described as follows: Acaricidal activity against Tetranychus urticae (two-spotted spider mite) in compound treated kidney bean leaf assessed as larvicidal activity. It is filed as functional.
For a further assay, the system named is Nephotettix cincticeps. The assay is described as follows: Insecticidal activity against Nephotettix cincticeps (green rice leafhopper) in compound treated rice seedlings assessed as mortality at 500 ppm. It is filed as functional.
For the next assay, the system named is Chilo suppressalis. The experiment in a line: Insecticidal activity against Chilo suppressalis (rice stem borer) larvae assessed as inhibition of incorporation of N-acetyl-[1-14C]glucosamine. It is filed as functional, organism-based.

Take `Clc1ccccc1C1=NC(c2ccccc2)CO1` (stereo unspecified): the mortality at 500 ppm in the assay on Myzus persicae turned out to be 0%; in the assay on Plutella xylostella, 35%; in the assay on Nephotettix cincticeps it was 10%. In the assay on Tetranychus urticae [1], the mortality at 1000 ppm worked out at 10%. In the assay with Tetranychus urticae [2], the LC50 came to 1 µg/mL (≈ 3.88 µM).
As to `COc1ccccc1C1=NC(c2ccccc2)CO1` (stereo unspecified), the mortality at 500 ppm in the assay on Myzus persicae amounted to 0%; in the assay with Plutella xylostella, 10%; in the assay on Nephotettix cincticeps, 10%. Moreover, the mortality at 1000 ppm in the assay with Tetranychus urticae [1] was determined as 0%. The LC50 in the assay on Tetranychus urticae [2] came to 10 µg/mL (≈ 39.5 µM).
In the case of `O=C(NC(=O)c1c(F)cccc1F)Nc1ccc(Cl)cc1` [DIFLUBENZURON], the negative logarithm of the EC50 (pEC50) in the assay with Chilo suppressalis was 7.70.
`Fc1cccc(F)c1C1=NC(c2ccccc2)CS1` (stereo unspecified): the mortality at 500 ppm in the assay on Myzus persicae, in the assay with Plutella xylostella and in the assay on Nephotettix cincticeps was 0% in each case. Moreover, the mortality at 1000 ppm with Tetranychus urticae [1] was 0%. In the assay on Tetranychus urticae [2], the LC50 was found to be 10 µg/mL (≈ 36.3 µM).
For the molecule `Clc1ccc(C2=NC(c3ccccc3)CO2)c(Cl)c1` (stereo unspecified), the mortality at 500 ppm with Myzus persicae is 0%; in the assay on Plutella xylostella, 10%; in the assay on Nephotettix cincticeps, 0%. The mortality at 1000 ppm in the assay on Tetranychus urticae [1] came to 10%. Also, the LC50 in the assay with Tetranychus urticae [2] came to 10 µg/mL (≈ 34.2 µM).
Turning to `c1ccc(Oc2ccccc2C2=NC(c3ccccc3)CO2)cc1` (stereo unspecified), the mortality at 500 ppm in the assay with Myzus persicae, in the assay with Plutella xylostella and with Nephotettix cincticeps was 0% each time. Further, the mortality at 1000 ppm in the assay with Tetranychus urticae [1] turned out to be 0%. In the assay with Tetranychus urticae [2], the LC50 was 100 µg/mL (≈ 317 µM).
In the case of `Clc1ccc(Cl)c(C2=NC(c3ccccc3)CO2)c1` (stereo unspecified), the mortality at 500 ppm was 0% in the assay on Myzus persicae, 35% in the assay with Plutella xylostella and 0% with Nephotettix cincticeps. Moreover, the mortality at 1000 ppm in the assay with Tetranychus urticae [1] stood at 0%. In addition, in the assay with Tetranychus urticae [2], the median lethal concentration (LC50) worked out at 100 µg/mL (≈ 342 µM).
